For 20 compounds, IC50 results are on record in US12358886B2, “Heterocyclic compounds for use in the treatment of cancer” (Artios Pharma Limited, priority 2019, dated 2025).

Broadly, the IC50 is the concentration needed to halve the response being measured. A lower IC50 goes with greater potency.

Chain of Polθ protein (amino acids 2-2590) (O75417 2-2590): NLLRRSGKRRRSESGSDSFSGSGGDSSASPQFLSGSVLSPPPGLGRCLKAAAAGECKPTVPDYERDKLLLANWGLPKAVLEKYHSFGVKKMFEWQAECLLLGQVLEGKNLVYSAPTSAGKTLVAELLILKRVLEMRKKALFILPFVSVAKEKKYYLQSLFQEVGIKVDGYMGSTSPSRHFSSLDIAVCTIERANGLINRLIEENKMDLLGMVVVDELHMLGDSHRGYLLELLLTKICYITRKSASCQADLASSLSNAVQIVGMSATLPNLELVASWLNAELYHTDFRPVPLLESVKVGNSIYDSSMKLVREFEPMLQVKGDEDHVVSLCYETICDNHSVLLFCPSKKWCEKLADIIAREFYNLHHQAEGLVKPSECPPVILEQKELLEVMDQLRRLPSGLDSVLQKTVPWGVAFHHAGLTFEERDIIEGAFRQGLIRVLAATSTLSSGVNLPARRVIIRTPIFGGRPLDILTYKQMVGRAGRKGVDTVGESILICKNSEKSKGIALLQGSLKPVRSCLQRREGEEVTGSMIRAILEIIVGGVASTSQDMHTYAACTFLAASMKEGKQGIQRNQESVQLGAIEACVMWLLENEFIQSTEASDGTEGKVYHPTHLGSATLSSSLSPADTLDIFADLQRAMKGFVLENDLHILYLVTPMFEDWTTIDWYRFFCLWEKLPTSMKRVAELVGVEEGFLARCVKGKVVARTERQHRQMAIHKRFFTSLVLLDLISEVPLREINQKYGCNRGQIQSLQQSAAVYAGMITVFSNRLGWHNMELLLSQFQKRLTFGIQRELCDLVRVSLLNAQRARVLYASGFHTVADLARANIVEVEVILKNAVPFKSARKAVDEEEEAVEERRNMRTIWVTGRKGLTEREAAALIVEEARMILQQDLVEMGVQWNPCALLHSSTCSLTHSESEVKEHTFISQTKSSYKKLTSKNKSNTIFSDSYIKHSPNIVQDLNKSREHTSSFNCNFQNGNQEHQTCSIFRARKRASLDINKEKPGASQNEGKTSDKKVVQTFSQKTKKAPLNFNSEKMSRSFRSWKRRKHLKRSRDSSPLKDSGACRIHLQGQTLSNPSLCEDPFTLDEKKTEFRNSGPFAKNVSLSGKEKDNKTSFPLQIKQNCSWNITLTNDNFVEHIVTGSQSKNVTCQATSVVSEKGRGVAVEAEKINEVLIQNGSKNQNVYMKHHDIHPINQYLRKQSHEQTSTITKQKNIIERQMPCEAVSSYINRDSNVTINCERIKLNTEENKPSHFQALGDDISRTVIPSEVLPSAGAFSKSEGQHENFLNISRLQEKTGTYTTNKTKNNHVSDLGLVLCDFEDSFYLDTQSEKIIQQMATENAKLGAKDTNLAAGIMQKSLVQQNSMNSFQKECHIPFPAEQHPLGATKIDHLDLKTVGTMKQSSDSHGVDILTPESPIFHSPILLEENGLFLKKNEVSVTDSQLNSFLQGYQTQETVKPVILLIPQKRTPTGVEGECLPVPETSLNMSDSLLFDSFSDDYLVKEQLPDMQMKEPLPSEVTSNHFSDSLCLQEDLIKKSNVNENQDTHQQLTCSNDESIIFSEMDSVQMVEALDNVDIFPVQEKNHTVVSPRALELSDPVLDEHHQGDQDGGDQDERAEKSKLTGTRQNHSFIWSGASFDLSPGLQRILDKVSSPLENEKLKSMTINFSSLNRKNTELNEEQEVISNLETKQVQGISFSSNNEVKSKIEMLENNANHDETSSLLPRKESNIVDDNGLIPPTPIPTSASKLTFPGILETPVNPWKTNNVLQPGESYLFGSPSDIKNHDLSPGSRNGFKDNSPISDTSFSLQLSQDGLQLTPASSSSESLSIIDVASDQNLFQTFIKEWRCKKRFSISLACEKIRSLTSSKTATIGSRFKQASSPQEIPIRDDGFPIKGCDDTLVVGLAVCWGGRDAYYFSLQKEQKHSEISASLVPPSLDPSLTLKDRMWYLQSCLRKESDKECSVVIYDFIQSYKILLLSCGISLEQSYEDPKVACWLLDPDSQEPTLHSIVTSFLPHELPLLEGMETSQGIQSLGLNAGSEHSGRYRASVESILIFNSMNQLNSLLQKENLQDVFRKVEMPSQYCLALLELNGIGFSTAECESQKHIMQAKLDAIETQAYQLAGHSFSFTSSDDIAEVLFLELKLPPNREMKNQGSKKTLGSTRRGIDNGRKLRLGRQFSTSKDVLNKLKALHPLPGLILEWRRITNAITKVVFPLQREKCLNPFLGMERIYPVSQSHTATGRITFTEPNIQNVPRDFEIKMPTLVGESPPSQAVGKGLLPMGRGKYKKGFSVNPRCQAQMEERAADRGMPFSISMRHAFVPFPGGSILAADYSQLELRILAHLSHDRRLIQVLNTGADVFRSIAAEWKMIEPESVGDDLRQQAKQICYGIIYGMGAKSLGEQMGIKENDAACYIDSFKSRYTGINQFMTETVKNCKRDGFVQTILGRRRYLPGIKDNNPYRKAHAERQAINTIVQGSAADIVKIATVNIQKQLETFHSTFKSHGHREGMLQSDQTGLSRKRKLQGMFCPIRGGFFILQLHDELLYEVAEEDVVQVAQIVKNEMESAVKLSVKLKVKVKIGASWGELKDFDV

This experiment has as its target Polθ protein (amino acids 2-2590) (Homo sapiens, UniProt O75417). The experiment in a line: Polθ full length enzyme potency assay (PicoGreen). To be noted: Polθ IC50 (nM), full length N-His, C-term FLAG tagged Polθ, PicoGreen fluorescence, 12 point concentration response.
Compound `CCN(C(=O)[C@@H]1C[C@H](N2CC(O)C2)CN1c1cc(C(F)(F)F)cc(C)n1)c1ccc(F)c(F)c1` [Example 130, (2S,4S)-N-(3,4-Difluorophenyl)-N-ethyl-4-(3-hydroxyazetidin-1-yl)-1-(6-methyl-4-(trifluoromethyl)pyridin-2-yl)pyrrolidine-2-carboxamide] yielded an IC50 of 100 nM.

`Cc1cc(C(F)(F)F)cc(N2C(=O)N(CCN3CCOCC3)C[C@H]2C(=O)N(C)c2ccc(F)c(Cl)c2)n1` [Example 194, (S)-N-(3-Chloro-4-fluorophenyl)-N-methyl-3-(6-methyl-4-(trifluoromethyl)pyridin-2-yl)-1-(2-morpholinoethyl)-2-oxoimidazolidine-4-carboxamide] yielded an IC50 of 7 nM.

`CCN(C(=O)[C@H]1C[C@@H](NCCS(C)(=O)=O)CN1c1nc(C)cc(C)c1C#N)c1cccc(C)c1` (stereo in doubt) [Example 45, (2R,4R)-1-(3-Cyano-4,6-dimethylpyridin-2-yl)-N-ethyl-4-((2-(methylsulfonyl)ethyl)-amino)-N-(m-tolyl)pyrrolidine-2-carboxamide] had an IC50 of 85 nM.

`C=Cc1cc(N(C)C(=O)[C@@H]2COC(=O)N2c2cc(C(F)(F)F)cc(C)n2)ccc1F` [Example 109, (S)—N-(4-Fluoro-3-vinylphenyl)-N-methyl-3-(6-methyl-4-(trifluoromethyl)pyridin-2-yl)-2-oxooxazolidine-4-carboxamide] returned an IC50 of 49 nM.

Compound `CCN(C(=O)[C@@H]1C[C@H](N[C@H]2CN(C(=O)OC(C)(C)C)C[C@H]2O)CN1c1cc(C(F)(F)F)cc(C)n1)c1ccc(F)c(F)c1` [Example 136, tert-Butyl (3S,4R)-3-(((3S,5S)-5-((3,4-difluorophenyl)(ethyl)carbamoyl)-1-(6-methyl-4-(trifluoromethyl)pyridin-2-yl)pyrrolidin-3-yl)amino)-4-hydroxypyrrolidine-1-carboxylate] returned an IC50 of 45 nM.

Compound `CC(=O)N1CCN(CCN2C[C@@H](C(=O)N(C)c3ccc(F)c(Cl)c3F)N(c3cc(C(F)(F)F)cc(C)n3)C2=O)CC1` [Example 204, (S)-1-(2-(4-Acetylpiperazin-1-yl)ethyl)-N-(3-chloro-2,4-difluoro-phenyl)-N-methyl-3-(6-methyl-4-(trifluoromethyl)pyridin-2-yl)-2-oxoimidazolidine-4-carboxamide] registered an IC50 of 3 nM.

On to `Cc1cc(C(F)(F)F)cc(N2C(=O)NC[C@H]2C(=O)N(C)c2ccc3c(Cl)c[nH]c3n2)n1` [Example 240, (S)—N-(3-Chloro-1H-pyrrolo[2,3-b]pyridin-6-yl)-N-methyl-3-(6-methyl-4-(trifluoromethyl)pyridin-2-yl)-2-oxoimidazolidine-4-carboxamide], for which inhibition was half-maximal at 7 nM (IC50).

`CCc1cc(C(F)(F)F)cc(N2C(=O)OC[C@H]2C(=O)N(C)c2ccc(F)c(Cl)c2)n1` [Example 115, (S)—N-(3-Chloro-4-fluorophenyl)-3-(6-ethyl-4-(trifluoromethyl)pyridin-2-yl)-N-methyl-2-oxooxazolidine-4-carboxamide] returned an IC50 of 54 nM.

Take `Cc1cc(C)c(C#N)c(N2C[C@@H](O)C[C@H]2C(=O)N(C)c2ccccc2)n1` [Example 7, (2S,4S)-1-(3-Cyano-4,6-dimethylpyridin-2-yl)-4-hydroxy-N-methyl-N-phenylpyrrolidine-2-carboxamide]: the IC50 was 438 nM.

Turning to `Cc1cc(C(F)(F)F)cc(N2C(=O)NC[C@H]2C(=O)N(C)c2ccc3sccc3n2)n1` [Example 237, (S)—N-Methyl-3-(6-methyl-4-(trifluoromethyl)pyridin-2-yl)-2-oxo-N-(thieno[3,2-b]pyridin-5-yl)imidazolidine-4-carboxamide], half-maximal inhibition (IC50) was put at 37 nM.

In turn, `Cc1cc(C(F)(F)F)cc(N2C(=O)N(CC(O)CN3CCOCC3)C[C@H]2C(=O)N(C)c2ccc(F)c(Cl)c2F)n1` (stereo partly drawn) [Example 217, (4S)—N-(3-Chloro-2,4-difluorophenyl)-1-(2-hydroxy-3-morpholinopropyl)-N-methyl-3-(6-methyl-4-(trifluoromethyl)pyridin-2-yl)-2-oxoimidazolidine-4-carboxamide] displayed an IC50 of 7 nM.

For the compound `Cc1cc(C(F)(F)F)cc(N2C(=O)[C@@H](O)[C@@H](O)[C@H]2C(=O)N(C)c2ccc(F)c(Cl)c2)n1` [Example 65, (2S,3S,4S)—N-(3-Chloro-4-fluorophenyl)-3,4-dihydroxy-N-methyl-1-(6-methyl-4-(trifluoromethyl)pyridin-2-yl)-5-oxopyrrolidine-2-carboxamide], the IC50 came to 8 nM.

`Cc1cc(C(F)(F)F)cc(N2C(=O)N(CCN3CCCC3CO)C[C@H]2C(=O)N(C)c2ccc(F)c(Cl)c2)n1` (single isomer, unassigned; isomer 1) [Example 198] gave an IC50 of 28 nM.

With `CCN(C(=O)[C@@H]1C[C@H](N[C@@H]2COCC[C@H]2O)CN1c1cc(C(F)(F)F)cc(C)n1)c1ccc(F)c(F)c1` [Example 132, (2S,4S)-N-(3,4-Difluorophenyl)-N-ethyl-4-(((3R,4R)-4-hydroxytetrahydro-2H-pyran-3-yl)amino)-1-(6-methyl-4-(trifluoromethyl)pyridin-2-yl)pyrrolidine-2-carboxamide], inhibition was half-maximal at 156 nM (IC50).

Turning to `Cc1cc(C(F)(F)F)cc(N2C(=O)OC[C@H]2C(=O)N(C)c2ccc(Cl)c(F)c2F)n1` [Example 101, (S)-N-(4-Chloro-2,3-difluorophenyl)-N-methyl-3-(6-methyl-4-(trifluoromethyl)pyridin-2-yl)-2-oxooxazolidine-4-carboxamide], the IC50 was determined as 23 nM.

Take `Cc1cc(C(F)(F)F)c(C#N)c(N2[C@@H](C)CC[C@H]2C(=O)N(C)c2ccc(F)c(Cl)c2)n1` [Example 242, (2S,5S)—N-(3-Chloro-4-fluorophenyl)-1-(3-cyano-6-methyl-4-(trifluoromethyl)pyridin-2-yl)-N,5-dimethylpyrrolidine-2-carboxamide]: the half-maximal inhibitory concentration (IC50) was 311 nM.

`Cc1cc(C(F)(F)F)c(C#N)c(N2C[C@@H](O)C[C@H]2C(=O)N(C)c2ccc(C(F)(F)F)c(F)c2)n1` [Example 19, (2S,4S)-1-(3-Cyano-6-methyl-4-(trifluoromethyl)pyridin-2-yl)-N-(3-fluoro-4-(trifluoromethyl)-phenyl)-4-hydroxy-N-methyl-pyrrolidine-2-carboxamide] had an IC50 of 524 nM.

Regarding `Cc1cccc(N(C)C(=O)[C@@H]2C[C@H](O)CN2c2cc(C(C)C)cc(C)n2)c1` [Example 28, (2S,4S)-4-Hydroxy-1-(4-isopropyl-6-methylpyridin-2-yl)-N-methyl-N-(m-tolyl)pyrrolidine-2-carboxamide], the IC50 was found to be 48 nM.

For `Cc1cc(C(F)(F)F)c(C#N)c(N2CCC[C@H]2C(=O)N(C)c2cc(Cl)c3ccn(C)c3n2)n1` [Example 244, (S)—N-(4-Chloro-1-methyl-pyrrolo[2,3-b]pyridin-6-yl)-1-[3-cyano-6-methyl-4-(trifluoromethyl)-2-pyridyl]-N-methyl-pyrrolidine-2-carboxamide], inhibition was half-maximal at 130 nM (IC50).

As to `Cc1cc(C(F)(F)F)cc(N2C(=O)OC[C@H]2C(=O)N(C)c2ccc(F)c(Cl)c2)n1` [Example 83, (S)—N-(3-Chloro-4-fluorophenyl)-N-methyl-3-(6-methyl-4-(trifluoromethyl)pyridin-2-yl)-2-oxooxazolidine-4-carboxamide], 16 nM corresponded to half-maximal inhibition (IC50).
